This test deals with swine adipose tissue. In words: Inhibition of lipogenesis (uptake of radioactive carbon from glucose-U^14 C into lipid) in swine adipose tissue slices. The format is cell-based. Conditions: 100 micrograms per milliliter, 37° C., 2 hours, 5% DMSO, with insulin, triplicate. The text has this:
The manner in which they cause this effect is not known with certainty; it is believed that they interfere with the synthesis of fatty acids in the tissues. Their effectiveness for this purpose has been ascertained by immersing samples of swine adipose tissue in a liquid medium containing radioactive glucose and the test chemical for a period of time, then isolating the lipid from the treated tissue and determining the up-take of the radioactive carbon by means of scintillation counting techniques. These tests were conducted in swine adipose tissue because in swine, the primary site of lipogenesis--i.e., fatty acid synthesis--appears to be adipose tissue.
Described in more detail, the tests were conducted according to the following general procedure.
150 milligrams of slices of swine adipose tissue were incubated at 37° C. for 2 hours with shaking in 3 milliliters of Krebs-Ringer bicarbonate solution containing one-half the normal calcium ion concentration, 60 micromoles of glucose, 0.5 micro-Curie of glucose-U^14 C, and 300 microunits of insulin, and 5% dimethyl sulfoxide (DMSO). The test compounds were added as a solution or suspension in DMSO and were present at a concentration of 100 micrograms per milliliter of the incubation mixture.
The incubation was terminated by addition of 0.25 milliliter of 1 N sulfuric acid. The resulting mixture was extracted with a total of 25 milliliters of chloroform:methanol (2:1, v/v). The extracts were washed according to Folch et al. (J. Biol. Chem., 226, 497-509, (1957)), air dried, and counted in a liquid scintillation counter with 15 milliliters of counting fluid (two parts toluene containing 0.4% w/v New England Nuclear Omnifluor: 1 part Triton X-100). The tests were conducted in triplicate and were accompanied by control tests in which all ingredients,proportions and conditions were the same except that no test compound was included. From the data obtained were calculated the percent inhibition of lipid synthesis by the test compound in each case. The data obtained from the tests are set out in Table 1, as the percent inhibition of lipogenesis compared to the results obtained in the control tests wherein only the test compound was omitted.
For `C=CCNC(=O)C1CSc2ccccc2O1` (centres unmarked) [Compound 1, 2,3-Dihydro-N-(2-propenyl)-1,4-benzoxathiin-2-carboxamide], the “Percent Inhibition (of lipogenesis compared to control tests)” value (from here on “Percent Inhibition”) came to 63%. The value for `C=CCNC(=O)C1CSc2cc(C)ccc2O1` (centres unmarked) [Compound 2, 2,3-Dihydro-6-methyl-N-(2-propenyl)-1,4-benzoxathiin-2-carboxamide] was 63%; that for `C=CCNC(=O)C1CSc2cc(Cl)ccc2O1` (centres unmarked) [Compound 3, 6-Chloro-2,3-dihydro-N-(2-propenyl)-1,4-benzoxathiin-2-carboxamide] was 54%.

As for `C=CCNC(=O)C1CSc2cc(C(F)(F)F)ccc2O1` (centres unmarked) [Compound 4, 6-(Trifluoromethyl)-2,3-dihydro-N-(2-propenyl)-1,4-benzoxathiin-2-carboxamide], the “Percent Inhibition” value is on record as 30%. Turning to `C=CCNC(=O)C1CSc2cc([N+](=O)[O-])ccc2O1` (centres unmarked) [Compound 5, 6-Nitro-2,3-dihydro-N-(2-propenyl)-1,4-benzoxathiin-2-carboxamide], the “Percent Inhibition” value turned out to be 45%. `C=CCNC(=O)C1CSc2cc(N)ccc2O1` (centres unmarked) [Compound 6, 6-Amino-2,3-dihydro-N-(2-propenyl)-1,4-benzoxathiin-2-carboxamide]: the “Percent Inhibition” value was determined as 29%. With `C=CCNC(=O)C1CSc2cc(NS(C)(=O)=O)ccc2O1` (centres unmarked) [Compound 7, 6-Methylsulfonamido-3,4-dihydro-N-(2-propenyl)-1,4-benzoxathiin-2-carboxamide] the figure was 46%; with `C=CCNC(=O)C1CSc2ccc(C)cc2O1` (centres unmarked) [Compound 8, 2,3-Dihydro-7-methyl-N-(2-propenyl)-1,4-benzoxathiin-2-carboxamide], 26%.
